# In PubChem BioAssay (NCI):
# “And” between values parts separate entries of the source, which are not always exact repeats. Equal values may be shown once.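 Briefly, cells in 96-well plates were exposed to five compound concentrations for 48 h, and endpoints were estimated by linear interpolation. GI50: concentration for 50% inhibition of growth. At the TGI there is no net growth.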
# Key:
# Test in all cases: NCI tumour cell line growth inhibition, 48 h
# LOX IMVI melanoma = test system: LOX IMVI melanoma
# HS 578T breast = test system: HS 578T breast
# A549 NSCLC = test system: A549 NSCLC
# UACC-62 melanoma = test system: UACC-62 melanoma
# NCI-H226 lung = test system: NCI-H226 lung
# SF-295 CNS = test system: SF-295 CNS
# MOLT-4 leukemia = test system: MOLT-4 leukemia
# SNB-19 CNS = test system: SNB-19 CNS
# CAKI-1 renal = test system: CAKI-1 renal
# HT29 colon = test system: HT29 colon
Structure (SMILES),GI50 (LOX IMVI melanoma),TGI (LOX IMVI melanoma),GI50 (HS 578T breast),TGI (HS 578T breast),GI50 (A549 NSCLC),TGI (A549 NSCLC),GI50 (UACC-62 melanoma),TGI (UACC-62 melanoma),GI50 (NCI-H226 lung),TGI (NCI-H226 lung),GI50 (SF-295 CNS),TGI (SF-295 CNS),GI50 (MOLT-4 leukemia),TGI (MOLT-4 leukemia),GI50 (SNB-19 CNS),TGI (SNB-19 CNS),GI50 (CAKI-1 renal),TGI (CAKI-1 renal),GI50 (HT29 colon),TGI (HT29 colon)
COc1ccc(Nc2c3ccccc3nc3[nH]c4ccccc4c23)cc1,6.44 µM,29.5 µM,21 µM,> 50 µM,8.49 µM,> 50 µM,16.2 µM,> 50 µM,7.65 µM,> 50 µM,8.9 µM,> 50 µM,2.35 µM,> 50 µM,25.5 µM,> 50 µM,14 µM,> 50 µM,16.6 µM,> 50 µM
CCN(CC)CCSCCCNc1c2ccc(Cl)cc2nc2ccc(OC)cc12,0.337 µM,1.34 µM,2.12 µM,5.28 µM,0.98 µM,3.03 µM,1.93 µM,3.87 µM,,,1.13 µM,2.76 µM,0.435 µM,3.94 µM,1.25 µM,4.88 µM,1.23 µM,3.45 µM,0.423 µM,1.94 µM
CC(=O)Oc1ccc(C(c2ccc(OC(C)=O)cc2)c2ccccn2)cc1,52.7 µM,> 100 µM,,0.677 µM and 0.638 µM,49.7 µM,> 100 µM,21.2 µM,> 100 µM,40.2 µM,> 100 µM,37.1 µM,> 100 µM,40.5 µM,> 100 µM,,> 100 µM,46.8 µM,> 100 µM,,> 100 µM
[Cl][Cd][Cl],24.8 µM,75.9 µM,10.1 µM,57.4 µM,> 47.8 µM and 33.2 µM,> 66.5 µM and 106 µM,5.02 µM and 20.2 µM and 7.81 µM,35.9 µM and 20.8 µM,> 44 µM and 11.9 µM,> 69.7 µM and 43.6 µM,76.4 µM,155 µM,31.4 µM and 11.8 µM,> 83.4 µM and 82.9 µM,> 44.1 µM and 49.9 µM,> 61 µM and 146 µM,17.7 µM and 10.9 µM,34.8 µM and 22.2 µM,45.4 µM,130 µM
Cn1c(=O)c(Oc2ccc(F)cc2F)cc2cnc(NCCS(C)(=O)=O)nc21,> 25 µM,> 25 µM,> 25 µM,> 25 µM,> 25 µM,> 25 µM,> 25 µM,> 25 µM,> 25 µM,> 25 µM,> 25 µM,> 25 µM,> 25 µM,> 25 µM,> 25 µM,> 25 µM,> 25 µM,> 25 µM,> 25 µM,> 25 µM
O=C1OC(c2ccccc2)=N/C1=C\c1cccc(F)c1,,45.6 µM,,> 100 µM,,> 100 µM,,> 100 µM,,92.8 µM,,> 100 µM,,67.9 µM,,> 100 µM,,> 100 µM,,> 100 µM
COc1ccc(Nc2cc(C)nc(N3CCN(c4ccnc5cc(Cl)ccc45)CC3)n2)cc1,2.39 µM,5.96 µM,4.04 µM,> 100 µM,2 µM,> 100 µM,1.71 µM,5.93 µM,4.7 µM,> 100 µM,1.28 µM,7.68 µM,2.9 µM,19.7 µM,4.83 µM,> 100 µM,2.71 µM,> 100 µM,2.83 µM,8.11 µM
COc1cc(Cl)cc(-c2nn(-c3cccc(NC(=O)Nc4ccc(Cl)c(C(F)(F)F)c4)c3)cc2-c2ccncc2)c1,,,4.29 µM,67.7 µM,0.678 µM,10.8 µM,1.27 µM,3.54 µM,2.5 µM,14.7 µM,0.465 µM,2 µM,1.23 µM,4.65 µM,2.93 µM,17.6 µM,0.816 µM,9.43 µM,1.14 µM,4.38 µM
Cn1cnc([N+](=O)[O-])c1Sc1ncn[nH]1,> 100 µM,> 100 µM,52.8 µM,> 100 µM,> 100 µM,> 100 µM,96.3 µM,> 100 µM,> 100 µM,> 100 µM,> 100 µM,> 100 µM,> 100 µM,> 100 µM,> 100 µM,> 100 µM,30.7 µM,> 100 µM,> 100 µM,> 100 µM
O=[N+]([O-])c1ccc(S(=O)(=O)Cc2ccccc2)c2nonc12,,38.2 µM,,58.5 µM,,83.8 µM,,35.1 µM,,> 100 µM,,> 100 µM,,83.8 µM,,> 100 µM,,38.2 µM,,36.7 µM
O=C(Nc1ccc(I)cc1F)c1cc(Cl)ccc1O,0.424 µM,2.18 µM,0.325 µM,3.19 µM,2.73 µM,> 100 µM,0.273 µM,1.05 µM,1.17 µM,4.89 µM,1.75 µM,3.49 µM,1.44 µM,5.22 µM,0.372 µM,> 100 µM,0.305 µM,2.34 µM,3.29 µM,27.3 µM
OCCN1CCN(CC/C=C2\c3ccccc3Sc3ccc(Cl)cc32)CC1,1.96 µM and 1.65 µM,3.89 µM and 3.13 µM,2.43 µM and 2.25 µM,7.02 µM and 7.94 µM,4.79 µM and 4.13 µM,22.9 µM and 14.3 µM,1.73 µM and 1.77 µM,3.61 µM and 3.44 µM,6.93 µM,22.1 µM,1.79 µM and 2.17 µM,5.07 µM and 5.33 µM,1.76 µM and 2.91 µM,4.03 µM and 8.54 µM,2.45 µM and 4.49 µM,6.43 µM and 10.4 µM,2.31 µM and 2.6 µM,10.4 µM and 8.18 µM,1.72 µM and 1.69 µM,3.92 µM and 3.42 µM
CSc1cccc(NC(=O)OC2CCCCCCCCCCC2)c1,,35.1 µM,,> 100 µM,,> 100 µM,,52.7 µM,,61.7 µM,,57.9 µM,,> 100 µM,,> 100 µM,,61 µM,,43.8 µM
Cc1c(Sc2ccccc2)[n+](=O)c2cc(Cl)c(Cl)cc2n1[O-],18.4 µM,36.7 µM,> 100 µM,> 100 µM,> 100 µM,> 100 µM,> 100 µM,> 100 µM,> 100 µM,> 100 µM,> 100 µM,> 100 µM,15 µM,33.3 µM,> 100 µM,> 100 µM,42 µM,> 100 µM,79.9 µM,> 100 µM
COc1ccc(-c2nn(-c3cccc(NC(=O)c4ccc(N5CCOCC5)c(C(F)(F)F)c4)c3)cc2-c2ccncc2)cc1Cl,9.98 µM,> 50 µM,2.65 µM,> 50 µM,6.52 µM,> 50 µM,8.69 µM,> 50 µM,21.3 µM,> 50 µM,2.31 µM,> 50 µM,4.5 µM,> 50 µM,46.8 µM,> 50 µM,3.64 µM,> 50 µM,1.72 µM,> 50 µM
CCn1c2ccccc2c2cc(C(O)c3cccc4ncccc34)ccc21 (centres undefined),0.0631 µM,13.4 µM,0.0505 µM,23.5 µM,0.0684 µM,> 49.4 µM,0.0443 µM,2.32 µM,0.831 µM,46.8 µM,0.0335 µM,22.1 µM,0.0633 µM,> 100 µM,0.0437 µM,34.7 µM,0.0425 µM,> 100 µM,0.0357 µM,1.66 µM
Oc1ccc(Cl)cc1CNc1nc2ccccc2[nH]1,13.7 µM,28.8 µM,13.6 µM,42.1 µM,12.7 µM,30.2 µM,13.8 µM,27.6 µM,19.6 µM,50.2 µM,12.9 µM,27.5 µM,10.7 µM,> 100 µM,14.4 µM,40.3 µM,11.4 µM,28.1 µM,17.2 µM,35.5 µM
CC(C)CCN[C@@H]1CCc2cc(O)c(N3CC(=O)NS3(=O)=O)c(F)c2C1,52.7 µM,> 100 µM,> 100 µM,> 100 µM,> 100 µM,> 100 µM,,,> 100 µM,> 100 µM,> 100 µM,> 100 µM,> 100 µM,> 100 µM,> 100 µM,> 100 µM,3.41 µM,> 100 µM,> 100 µM,> 100 µM
O=C1OC(CN2CCOCC2)CN1/N=C/c1ccc([N+](=O)[O-])o1 (centres undefined),,59.6 µM,,> 100 µM,,> 100 µM,,99.2 µM,,> 100 µM,,> 100 µM,,> 100 µM,,> 100 µM,,> 100 µM,,> 100 µM
CC(C)COC(=O)c1ccc2[nH]c(O)c(C=Nc3ccc(S(N)(=O)=O)cc3)c2c1,0.666 µM,4.06 µM,1.45 µM,6.07 µM,1.74 µM,5.88 µM,1.91 µM,6.08 µM,1.73 µM,6.79 µM,1.77 µM,8.46 µM,1.68 µM,11 µM,1.93 µM,13.7 µM,2.86 µM,16.7 µM,1.63 µM,5.21 µM
CN(C)CCN1C(=O)c2cccc3cccc(c23)C1=O,10.6 µM,> 25 µM,> 25 µM,> 25 µM,12.9 µM,> 25 µM,18.1 µM,> 25 µM,12.2 µM,> 25 µM,11.1 µM,> 25 µM,6.3 µM,16.3 µM,22.3 µM,> 25 µM,5.13 µM,17.5 µM,11.7 µM,> 25 µM
O=C(Nc1ccc(Cl)c(Cl)c1)OCCN1c2ccccc2Sc2ccccc21,,> 10 µM,,> 10 µM,,> 10 µM,,> 10 µM,,,,> 10 µM,,> 10 µM,,> 10 µM,,> 10 µM,,> 10 µM
NCCSCCc1ccccc1,,> 100 µM,,> 100 µM,,> 100 µM,,> 100 µM,,> 100 µM,,> 100 µM,,,,> 100 µM,,> 100 µM,,> 100 µM
CCc1nc(N)nc(N)c1-c1ccc(Cl)c(N=CN(C)C)c1,,> 100 µM,,> 100 µM,,> 100 µM,,> 100 µM,,> 100 µM,,> 100 µM,,> 100 µM,,> 89.3 µM,,> 100 µM,,> 100 µM
O=C1C=CC(O)C2C1CC13SSC4(CC5C(=O)C=CC(O)C5N4C1=O)C(=O)N23 (centres undefined),,0.193 µM,,2.26 µM,,10.8 µM,,0.622 µM,,1.19 µM,,2.94 µM,,> 100 µM,,5.19 µM,,0.957 µM,,
O=C1CC(c2ccc(Cl)cc2)Oc2ccccc21 (centres undefined),,93.6 µM,,54.8 µM,,,,49.8 µM,,33.6 µM,,> 100 µM,,,,77.7 µM,,77.3 µM,,21.2 µM
CCN(CC)CCOc1ccc(C(=O)/C=C\c2ccc(Cl)cc2Cl)cc1,1.78 µM,3.6 µM,9.47 µM,32 µM,6.55 µM,22.6 µM,2.08 µM,4.71 µM,11.3 µM,26.6 µM,8.7 µM,22.3 µM,,,6.81 µM,24.4 µM,10.5 µM,22.3 µM,2.06 µM,5.62 µM
COc1ccc(OC)c(Nc2nc(-c3c(C)nc4sccn34)cs2)c1,> 100 µM,> 100 µM,5.3 µM,> 100 µM,> 100 µM,> 100 µM,51.8 µM,> 100 µM,19.2 µM,> 100 µM,41.4 µM,> 100 µM,> 100 µM,> 100 µM,41.4 µM,> 100 µM,,,> 100 µM,> 100 µM
Cc1ccc(-c2nc(N3CCCNCC3)c3oc(-c4ccc(C)cc4)nc3n2)cc1,1.86 µM,3.46 µM,12.6 µM,31.9 µM,1.72 µM,3.13 µM,1.67 µM,3.08 µM,,,1.86 µM,3.54 µM,1.77 µM,3.59 µM,1.77 µM,3.25 µM,1.56 µM,3.02 µM,1.49 µM,2.85 µM
CN(/N=N/c1nc(OCc2ccccc2)c2[nH]cnc2n1)C(=O)Oc1ccc([N+](=O)[O-])cc1,1.14 µM,10.8 µM,8.61 µM,29.6 µM,12 µM,31.6 µM,7.5 µM,15.2 µM,,,11.1 µM,33.6 µM,,,9.6 µM,27.9 µM,10.9 µM,35.4 µM,,
